Results taken from PMC10209615, “Pharmacological inhibition of LSD1 suppresses growth of hepatocellular carcinoma by inducing GADD45B” (MedComm, 2023).

How the values were obtained:
[1] = system: 104 cancer‐related kinases; test: Kinase activity detection (Eurofins), whole panel; assay type: biochemical; conditions: ZY0511 1 μM
Procedure: (§1) The activity of ZY0511 against 104 cancer‐related kinases was carried out by Eurofins Pharma Discovery Services (Celle Lévescault, France).

Hep3B [2] = test: Apoptosis analysis (Annexin V, flow cytometry); assay type: cell-based, human; conditions: 48 h
Procedure: (§2) Cells were fixed using 70% ethanol and stained with a Cell Cycle Detection Kit (KeyGEN). For apoptosis analysis, cells were exposed to ZY0511 alone or in combination with DTP3 for 48 h. Cells were harvested and stained with PE Annexin V Apoptosis Detection Kit (BD). The cell cycle or apoptosis induction was detected by using a flow cytometer (Agilent NovoCyte). Results were assessed by NovoExpress software (Agilent NovoCyte).

HepG2 [3] = test: Apoptosis analysis (Annexin V, flow cytometry); assay type: cell-based, human; conditions: HepG2, 48 h
Procedure: as §2

LSD1 knockout JHH7 cells = test: Proliferation of LSD1 knockout JHH7 cells after ZY0511; assay type: cell-based, human; conditions: ZY0511 treatment for 96 h
Procedure: Cell viability was determined using Cell Counting Kit‐8 (CCK8; Dojindo) or 3‐(4, 5‐dimethylthiazol‐2‐yl)‐2,5‐diphenyltetrazoliumbromide (MTT, Sigma Aldrich) assay. […] Consequently, cell viability was determined using a microplate reader (Thermo Fisher) at 450 nm for CCK8 assay, or 570 nm for MTT assay, at different time points. The IC50 values and CI values were analyzed and calculated using GraphPad Prism 8 and CompuSyn (version 1.0; http://www.combosyn.com), respectively.

Hep3B [4] = test: MTT assay, ZY0511 and DTP3; assay type: cell-based; conditions: Homo sapiens, 96 h, read-out: Inhibition rate
Procedure: (§3) Cell viability was determined using Cell Counting Kit‐8 (CCK8; Dojindo) or 3‐(4, 5‐dimethylthiazol‐2‐yl)‐2,5‐diphenyltetrazoliumbromide (MTT, Sigma Aldrich) assay. A selection of HCC cells was exposed to gradient concentration of ZY0511 for 96–144 h, or exposed to other LSD1 inhibitors including SP2509, GSK2879552, and ORY1001 for 144 h, or exposed to DTP3, which enhanced the apoptosis induction function of GADD45B for 96 h in combination therapy. Consequently, cell viability was determined using a microplate reader (Thermo Fisher) at 450 nm for CCK8 assay, or 570 nm for MTT assay, at different time points. The IC50 values and CI values were analyzed and calculated using GraphPad Prism 8 and CompuSyn (version 1.0; http://www.combosyn.com), respectively.

HepG2 [5] = test: MTT assay, ZY0511 and DTP3; assay type: cell-based; conditions: Homo sapiens, HepG2, 96 h, read-out: Inhibition rate
Procedure: as §3

PKCθ = target: T1, PKCθ (Homo sapiens, UniProt Q04759); test: Kinase activity detection (Eurofins); assay type: biochemical; conditions: ZY0511 1 µM, read-out: Inhibition rate
T1 construct: purchased Eurofins Pharma Discovery Services
Procedure: as §1

T1 sequence (Q04759 whole entry): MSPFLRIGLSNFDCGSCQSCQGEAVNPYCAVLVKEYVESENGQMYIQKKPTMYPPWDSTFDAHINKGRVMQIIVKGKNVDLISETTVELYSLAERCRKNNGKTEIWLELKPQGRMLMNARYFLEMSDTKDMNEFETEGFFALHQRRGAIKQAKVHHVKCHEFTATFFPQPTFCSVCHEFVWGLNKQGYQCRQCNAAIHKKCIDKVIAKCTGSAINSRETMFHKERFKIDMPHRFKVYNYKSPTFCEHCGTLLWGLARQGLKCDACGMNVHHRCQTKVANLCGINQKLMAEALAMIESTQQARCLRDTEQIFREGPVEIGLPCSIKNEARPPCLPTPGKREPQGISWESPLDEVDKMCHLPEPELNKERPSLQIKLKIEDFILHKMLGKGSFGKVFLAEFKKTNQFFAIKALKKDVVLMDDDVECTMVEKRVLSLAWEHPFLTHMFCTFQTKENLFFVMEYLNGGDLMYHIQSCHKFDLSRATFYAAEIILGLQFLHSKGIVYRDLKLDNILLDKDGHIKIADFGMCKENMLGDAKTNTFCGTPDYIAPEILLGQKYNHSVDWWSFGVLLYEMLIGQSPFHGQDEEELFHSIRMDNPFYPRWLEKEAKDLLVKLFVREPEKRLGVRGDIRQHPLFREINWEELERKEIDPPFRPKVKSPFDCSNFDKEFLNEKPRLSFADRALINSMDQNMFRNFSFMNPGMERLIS

O=C(N/N=C1\CCc2c(Cl)ccc(O)c21)c1cccc(S(=O)(=O)N2CCOCC2)c1 [ZY0511, (E)‐N'‐(2, 3‐dihydro‐1H‐inden‐1‐ylidene) benzohydrazides]
effect against other kinases, including FGFR, VEGFR, and PDGFR [1]: no effect | apoptotic rate (Hep3B [2]): 6.98% | apoptotic rate (HepG2 [3]): 6.49% | decrease of sensitivity of JHH7 cells to ZY0511 by LSD1 knockout (LSD1 knockout JHH7 cells): 20% | inhibition at 0.25 µM (Hep3B [4]): 31% | inhibition at 0.5 µM (Hep3B [4]): 42% | inhibition at 1 µM (Hep3B [4]): 49% | inhibition at 2 µM (Hep3B [4]): 61% | inhibition at 0.25 µM (HepG2 [5]): 47% | inhibition at 0.5 µM (HepG2 [5]): 65% | inhibition at 1 µM (HepG2 [5]): 79% | inhibition at 2 µM (HepG2 [5]): 80% | inhibition at 1 µM (PKCθ): 3%
